From ChEMBL document CHEMBL3044865, “Herbicidal Activity and Characteristics of Pyraflufen-ethyl for Controlling Broad-leaved Weeds in Cereals” (J Pestic Sci, 2002)

Tests used:
[1] = molecular target: T1, Protoporphyrinogen oxidase (Medicago truncatula) (UniProt G7L3C0); test: Inhibition of Viola arvensis protoporphyrinogen oxidase by post-emergence herbicidal activity assay
T1 sequence (whole entry): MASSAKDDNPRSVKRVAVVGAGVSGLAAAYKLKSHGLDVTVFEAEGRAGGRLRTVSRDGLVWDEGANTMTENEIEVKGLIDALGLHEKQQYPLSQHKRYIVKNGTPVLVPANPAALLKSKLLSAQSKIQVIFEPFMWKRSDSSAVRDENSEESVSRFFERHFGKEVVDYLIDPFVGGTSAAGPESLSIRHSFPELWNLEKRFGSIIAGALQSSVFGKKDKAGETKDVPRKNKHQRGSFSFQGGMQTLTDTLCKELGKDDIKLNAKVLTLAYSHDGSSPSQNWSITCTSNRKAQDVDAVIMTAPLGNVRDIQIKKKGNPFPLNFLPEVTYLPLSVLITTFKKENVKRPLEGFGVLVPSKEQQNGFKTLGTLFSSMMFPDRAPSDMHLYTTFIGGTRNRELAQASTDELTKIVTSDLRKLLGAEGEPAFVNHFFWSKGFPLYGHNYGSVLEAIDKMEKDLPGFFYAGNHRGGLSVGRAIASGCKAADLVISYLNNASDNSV

Stellaria media [2] = test: Herbicidal activity against Stellaria media assessed as killing at 0.3 g/ha post emergence application measured after 21 days after treatment; format: functional
Veronica hederifolia [3] = test: Herbicidal activity against Veronica hederaefolia assessed as killing at 10 g/ha post emergence application measured after 21 days after treatment; format: functional
Stellaria media [4] = test: Herbicidal activity against Stellaria media assessed as killing at 30 g/ha post emergence application measured after 21 days after treatment; format: functional
Viola arvensis [5] = test: Herbicidal activity against Viola arvensis assessed as killing at 10 g/ha post emergence application measured after 21 days after treatment; format: functional
Viola arvensis [6] = test: Herbicidal activity against Viola arvensis assessed as killing at 3 g/ha post emergence application measured after 21 days after treatment; format: functional
Hordeum vulgare [7] = test: Phytotoxicity in Hordeum vulgare (barley) assessed as injury at 3 g/ha post emergence application measured after 21 days after treatment; format: organism-based; conditions: in vivo, other, 504 h
Avena fatua [8] = test: Herbicidal activity against Avena fatua assessed as killing at 3 g/ha post emergence application measured after 21 days after treatment; format: functional
Hordeum vulgare [9] = test: Phytotoxicity in Hordeum vulgare (barley) assessed as injury at 100 g/ha pre emergence application measured after 21 days after treatment; format: organism-based; conditions: in vivo, other, 504 h
Triticum aestivum = test: Phytotoxicity in Triticum aestivum (wheat) assessed as injury at 30 g/ha pre emergence application measured after 21 days after treatment; format: organism-based; conditions: in vivo, other, 504 h
Veronica hederifolia [10] = test: Herbicidal activity against Veronica hederaefolia assessed as killing at 100 g/ha post emergence application measured after 21 days after treatment; format: functional
Hordeum vulgare [11] = test: Phytotoxicity in Hordeum vulgare (barley) assessed as injury at 0.3 g/ha post emergence application measured after 21 days after treatment; format: organism-based; conditions: in vivo, other, 504 h
Alopecurus myosuroides [12] = test: Herbicidal activity against Alopecurus myosuroides assessed as killing at 3 g/ha post emergence application measured after 21 days after treatment; format: functional
Hordeum vulgare [13] = test: Phytotoxicity in Hordeum vulgare (barley) assessed as injury at 10 g/ha pre emergence application measured after 21 days after treatment; format: organism-based; conditions: in vivo, other, 504 h
[14] = molecular target: T2, Protoporphyrinogen oxidase, chloroplastic (Nicotiana tabacum) (UniProt O24163); test: Inhibition of Veronica hederaefolia protoporphyrinogen oxidase by post-emergence herbicidal activity assay; conditions: Veronica hederifolia
T2 sequence (whole entry): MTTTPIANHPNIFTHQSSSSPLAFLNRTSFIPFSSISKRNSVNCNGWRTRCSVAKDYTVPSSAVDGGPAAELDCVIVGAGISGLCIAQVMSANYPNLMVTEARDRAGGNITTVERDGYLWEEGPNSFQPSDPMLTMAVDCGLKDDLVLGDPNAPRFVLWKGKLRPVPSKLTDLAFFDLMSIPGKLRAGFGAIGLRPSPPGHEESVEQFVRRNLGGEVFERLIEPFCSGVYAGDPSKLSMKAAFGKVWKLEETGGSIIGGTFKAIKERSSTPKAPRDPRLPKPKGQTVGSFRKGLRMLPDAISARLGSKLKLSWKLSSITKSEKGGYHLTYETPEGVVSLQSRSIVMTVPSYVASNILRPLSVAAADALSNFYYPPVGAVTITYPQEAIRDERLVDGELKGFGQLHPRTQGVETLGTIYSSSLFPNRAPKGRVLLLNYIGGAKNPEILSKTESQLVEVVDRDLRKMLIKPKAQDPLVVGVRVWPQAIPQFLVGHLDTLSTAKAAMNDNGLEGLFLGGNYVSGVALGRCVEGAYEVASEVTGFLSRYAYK

Viola arvensis [15] = test: Herbicidal activity against Viola arvensis assessed as killing at 1 g/ha post emergence application measured after 21 days after treatment; format: functional
Galium aparine = test: Herbicidal activity against Galium aparine assessed as killing at 300 g/ha post emergence application measured after 21 days after treatment; format: functional
Alopecurus myosuroides [16] = test: Herbicidal activity against Alopecurus myosuroides assessed as killing at 10 g/ha post emergence application measured after 21 days after treatment; format: functional
[17] = molecular target: T3, Protoporphyrinogen oxidase 2 (Spinacia oleracea) (UniProt Q94IG7); test: Inhibition of Stellaria media protoporphyinogen oxidase assessed as herbicidal activity at 0.3 g/ha measured after 2 days after treatment under greenhouse by time-course analysis; set-up: scale not given: the % may be the effect or the level left
T3 sequence (whole entry): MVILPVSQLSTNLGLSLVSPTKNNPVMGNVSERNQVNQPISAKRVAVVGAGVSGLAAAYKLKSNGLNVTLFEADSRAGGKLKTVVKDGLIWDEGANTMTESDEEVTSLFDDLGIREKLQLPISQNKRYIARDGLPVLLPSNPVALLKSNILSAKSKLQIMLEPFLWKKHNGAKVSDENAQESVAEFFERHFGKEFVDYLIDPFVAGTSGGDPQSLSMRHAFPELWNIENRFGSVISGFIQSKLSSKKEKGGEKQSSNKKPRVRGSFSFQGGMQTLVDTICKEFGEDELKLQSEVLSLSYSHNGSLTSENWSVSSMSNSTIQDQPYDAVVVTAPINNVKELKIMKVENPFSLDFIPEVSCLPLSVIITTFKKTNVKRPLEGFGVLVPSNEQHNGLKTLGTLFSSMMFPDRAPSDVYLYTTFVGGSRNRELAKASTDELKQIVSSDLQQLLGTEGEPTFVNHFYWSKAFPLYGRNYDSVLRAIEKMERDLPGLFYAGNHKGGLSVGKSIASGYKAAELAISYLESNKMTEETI

Veronica hederifolia [18] = test: Herbicidal activity against Veronica hederaefolia assessed as killing at 10 g/ha pre emergence application measured after 21 days after treatment; format: functional
Alopecurus myosuroides [19] = test: Herbicidal activity against Alopecurus myosuroides assessed as killing at 300 g/ha post emergence application measured after 21 days after treatment; format: functional
Hordeum vulgare [20] = test: Phytotoxicity in Hordeum vulgare (barley) assessed as injury at 10 g/ha post emergence application measured after 21 days after treatment; format: organism-based; conditions: in vivo, other, 504 h
Viola arvensis [21] = test: Herbicidal activity against Viola arvensis assessed as killing at 100 g/ha post emergence application measured after 21 days after treatment; format: functional
Avena fatua [22] = test: Herbicidal activity against Avena fatua assessed as killing at 300 g/ha post emergence application measured after 21 days after treatment; format: functional
Hordeum vulgare [23] = test: Phytotoxicity in Hordeum vulgare (barley) assessed as injury at 300 g/ha pre emergence application measured after 21 days after treatment; format: organism-based; conditions: in vivo, other, 504 h

CCOC(=O)COc1cc(-c2nn(C)c(OC(F)F)c2Cl)c(F)cc1Cl [PYRAFLUFEN-ETHYL]
ED90 [1]: 5 gAi/ha
Activity (Stellaria media [2]): 90%
Activity (Veronica hederifolia [3]): 100%
Activity (Stellaria media [4]): 40%
Activity (Viola arvensis [5]): 100%
Activity (Viola arvensis [6]): 80%
Activity (Hordeum vulgare [7]): 1%
Activity (Avena fatua [8]): 1%
Activity (Hordeum vulgare [9]): 1%
Activity (Triticum aestivum): Non-toxic
Activity (Veronica hederifolia [10]): 21%
Activity (Hordeum vulgare [11]): Non-toxic
Activity (Alopecurus myosuroides [12]): 1%
Activity (Hordeum vulgare [13]): Non-toxic
ED90 [14]: 1 gAi/ha
Activity (Viola arvensis [15]): 80%
Activity (Galium aparine): 50%
Activity (Alopecurus myosuroides [16]): 11%
Activity [17]: 90%
Activity (Veronica hederifolia [18]): 1%
Activity (Alopecurus myosuroides [19]): 1%
Activity (Hordeum vulgare [20]): 11%
Activity (Viola arvensis [21]): 40%
Activity (Avena fatua [22]): 21%
Activity (Hordeum vulgare [23]): 21%
